Assay results from patent publication US20080214552A1, “Substituted Pyridazinecarboxamides and Derivatives Thereof” (priority 2004, published 2008).

Tests used:
[1] = log P determination by HPLC on reverse-phase column (EEC directive 79/831 Annex V.A8); format: physicochemical; details: reverse-phase C18 HPLC column, acidic range (pH 2.3), 0.1% aqueous phosphoric acid/acetonitrile, 43° C.
Procedure: The log P values given in the table were determined in accordance with EEC directive 79/831 Annex V.A8 by HPLC (High Performance Liquid Chromatography) on a reverse-phase column (C 18). Temperature: 43° C. (a) Mobile phases for the determination in the acidic range (pH 2.3): 0.1% aqueous phosphoric acid, acetonitrile; linear gradient from 10% acetonitrile to 90% acetonitrile—the corresponding measurement results in table 1 are marked a). Calibration was carried out using unbranched alkan-2-ones (having 3 to 16 carbon atoms) with known log P values (determination of the log P values by the retention times using linear inter-polation between two successive alkanones).

[2] = tested on: larvae of the mustard beetle (Phaedon cochleariae); assay: Phaedon test (spray treatment); format: in vivo; details: 500 g/ha, spray treatment of Chinese cabbage disks
Procedure: (§1) To produce a suitable preparation of active compound, 1 part by weight of active compound is mixed with the stated amounts of solvents and emulsifier, and the concentrate is diluted with emulsifier-containing water to the desired concentration. Disks of Chinese cabbage (Brassica pekinensis) are sprayed with a preparation of active compound of the desired concentration and, after drying, populated with larvae of the mustard beetle (Phaedon cochleariae). After the desired period of time, the effect in % is determined. 100% means that all beetle larvae have been killed; 0% means that none of the beetle larvae have been killed.

[3] = tested on: caterpillars of the armyworm (Spodoptera frugiperda); assay: Spodoptera frugiperda test (spray treatment); format: in vivo; details: 500 g/ha, spray treatment of corn leaf disks
Procedure: as §1, with “corn leaves (Zea mays)” for “Chinese cabbage (Brassica pekinensis)”, “caterpillars” for “larvae”, “armyworm (Spodoptera frugiperda).” for “mustard beetle (Phaedon cochleariae).”, “caterpillars” for “beetle larvae”

| SMILES | chromatographic logP [1] | Kill rate in % after 7 d [2] | Kill rate in % after 7 d [3] |
| --- | --- | --- | --- |
| COC(=O)c1cnncc1C(F)(F)F [methyl 5-trifluoromethylpyridazine-4-carboxylate] | 1.68 |  |  |
| O=C(NC(c1ccccc1)c1ccccn1)c1cnncc1C(F)(F)F (stereo not shown) [Ia-59] |  | 100% | 100% |
| N#CCNC(=O)c1cnncc1C(F)(F)F [Example 1, N-cyanomethyl-5-trifluoromethylpyridazine-4-carboxamide] | 0.6 |  |  |
